Results published in patent US11236083B2, “Compounds and pharmaceutical compositions for modulating SGK activity, and methods thereof” (NEW ERA PHARMA, INC., priority 2016, dated 2022).
Where two headings read alike, the source gives them in different places.

Legend:
Sgk2 = target: T1, Sgk2 (Homo sapiens, UniProt Q9HBY8); assay: Enzyme based assay for SGK2 (biotinylated Akt Substrates-2 peptide, Eu3+ Cryptate/XL665 detection); format: biochemical
T1 sequence (Q9HBY8 1-367): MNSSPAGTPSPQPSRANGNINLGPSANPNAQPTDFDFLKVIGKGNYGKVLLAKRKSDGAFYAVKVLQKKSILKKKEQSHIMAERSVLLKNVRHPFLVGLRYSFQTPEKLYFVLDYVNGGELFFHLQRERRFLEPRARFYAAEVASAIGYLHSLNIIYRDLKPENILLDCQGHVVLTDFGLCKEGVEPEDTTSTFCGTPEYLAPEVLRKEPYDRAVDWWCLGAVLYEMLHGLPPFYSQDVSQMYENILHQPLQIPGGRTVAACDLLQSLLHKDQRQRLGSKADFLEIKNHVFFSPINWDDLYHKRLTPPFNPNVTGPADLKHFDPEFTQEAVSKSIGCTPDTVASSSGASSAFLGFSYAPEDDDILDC
Description: (§1) 1. Enzyme Based Assays for SGK1, SGK2, SGK3, and Akt1
(§2) The kinase enzymatic reaction is carried out with a biotinylated Akt Substrates-2 peptide substrate. The phosphorylated substrate is then detected using a specific anti-phospho peptide antibody which is coupled with Eu^3+ Cryptate and XL665 conjugated with streptavidin.
(§3) Exemplary Assay Conditions
(§4) • Enzyme: ˜0.1 nM • Substrate: 0.2 μM • ATP: 50 μM and 1 mM • Mg^2+: 10 mM • Reaction time: 60 min with 50 μM ATP and 30 min with 1 mM ATP • SA-XL to Biotin: 1:10
(§5) Detailed Steps • 1. prepare the enzyme and substrate solution with the buffer from Cisbio • 2. add the enzyme and substrate solution to the diluted compound plate • 3. transfer 5 μL of compound, enzyme, and substrate mixture to an 384-well assay plate • 4. add 5 μL ATP (with Mg^2+) solution to initiate the reaction • 5. after certain time, add 10 μL of stop solution containing SA-XL and specific antibody • 6. read the plate after 2 h incubation at rt • 7. process the data using prizm software (Exemplary results are shown in FIG. 1.) 2. PK Studies Protocol

Sgk1 = target: T2, Sgk1 (Homo sapiens, UniProt O00141); assay: Enzyme based assay for SGK1 (biotinylated Akt Substrates-2 peptide, Eu3+ Cryptate/XL665 detection); format: biochemical
T2 sequence (O00141 1-431): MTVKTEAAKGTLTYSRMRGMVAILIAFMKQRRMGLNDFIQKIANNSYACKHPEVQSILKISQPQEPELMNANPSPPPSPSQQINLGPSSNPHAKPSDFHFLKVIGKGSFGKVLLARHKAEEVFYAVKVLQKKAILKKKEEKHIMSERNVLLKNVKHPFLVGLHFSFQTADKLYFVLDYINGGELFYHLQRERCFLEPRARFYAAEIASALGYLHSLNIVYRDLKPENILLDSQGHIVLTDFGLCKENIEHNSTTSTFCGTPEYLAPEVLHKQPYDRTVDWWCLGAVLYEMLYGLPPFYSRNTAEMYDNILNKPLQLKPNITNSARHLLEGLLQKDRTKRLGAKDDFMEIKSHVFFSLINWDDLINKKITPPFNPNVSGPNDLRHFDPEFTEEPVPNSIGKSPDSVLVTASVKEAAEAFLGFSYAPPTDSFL
Description: as §1, §2, §3, §4, §5

[1] = 50 μM ATP, read-out: Sgk2 (50 μM ATP)
[2] = 1 mM ATP, read-out: Sgk2 (1 mM ATP)
[3] = 50 μM ATP, read-out: Sgk1 (50 μM ATP)
[4] = 1 mM ATP, read-out: Sgk1 (1 mM ATP)

Row | SMILES | IC50 (Sgk2; [1]) [nM] | IC50 (Sgk2; [2]) [nM] | IC50 (Sgk1; [3]) [nM] | IC50 (Sgk1; [4]) [nM]
1 | COc1ccc(F)c(S(=O)(=O)Nc2ccc(-c3cc(OCC4CNCCO4)c4cn[nH]c4n3)cc2)c1 (stereo not shown) | 3.5 | 9.8 | 3.4 | 10.7
2 | COc1ccc(Cl)c(S(=O)(=O)Nc2ccc(-c3cc(OCC4CNCCO4)c4cn[nH]c4c3)cc2)c1 (stereo not shown) | 1.8 | 25.2 | 1.8 | 31.9
3 | COc1ccc(F)c(S(=O)(=O)Nc2ccc(-c3cc(OCC4CNCCO4)c4c(N)n[nH]c4c3)cc2)c1 (stereo not shown) | 2 | 3.8 | 2.3 | 3.9
4 | COc1ccc(F)c(S(=O)(=O)Nc2ccc(-c3cc4[nH]ncc4c(NCC4CNCCO4)n3)cc2)c1 (stereo not shown) | 5.3 | 3.5 | 8.1 | 4.2
5 | COc1ccc(F)c(S(=O)(=O)Nc2ccc(-c3cc(OC)c4c(N)n[nH]c4n3)cc2)c1 | 3 | 35.7 | 17.1 | 112
6 | COc1ccc(F)c(S(=O)(=O)Nc2ccc(-c3cc4[nH]ncc4c(OC)n3)cc2)c1 | 38.5 | 32.7 | 70.6 | –
7 | COc1ccc(F)c(S(=O)(=O)Nc2ccc(-c3cc(O[C@H]4CCOC4)c4c(N)n[nH]c4c3)cc2)c1 | 10.3 | 16.4 | 5.2 | 2.9
8 | COc1ccc(F)c(S(=O)(=O)Nc2ccc(-c3cc(O[C@@H]4CCOC4)c4c(N)n[nH]c4c3)cc2)c1 | 4.6 | 9.3 | 5.5 | 1.5
9 | COc1ccc(F)c(S(=O)(=O)Nc2ccc(-c3cc(OC4COC4)c4c(N)n[nH]c4c3)cc2)c1 | 4.4 | 6.5 | 8.6 | 3.8
10 | COc1ccc(F)c(S(=O)(=O)Nc2ccc(-c3cc(OCC(C)(C)O)c4c(N)n[nH]c4c3)cc2)c1 | 38.3 | 39.3 | 36.1 | –
11 | COc1ccc(F)c(S(=O)(=O)Nc2ccc(-c3cc(C)c4c(N)n[nH]c4c3)cc2)c1 | 8.4 | 71.5 | 21.5 | 49.9
12 | COc1ccc(F)c(S(=O)(=O)Nc2ccc(-c3cc4c5c(n[nH]c5c3)NC(=O)CO4)cc2)c1 | 24.3 | 222 | 30.6 | 970
13 | COCCOc1cc(-c2ccc(NS(=O)(=O)c3cc(OC)ccc3F)cc2)nc2[nH]nc(N)c12 | 9.6 | 69.4 | 28.7 | 10.4
14 | COc1ccc(F)c(S(=O)(=O)Nc2ccc(-c3cc(OCCN(C)C)c4c(N)n[nH]c4c3)cc2)c1 | 9.1 | 104 | 27 | 20
15 | CNCCOc1cc(-c2ccc(NS(=O)(=O)c3cc(OC)ccc3F)cc2)cc2[nH]nc(N)c12 | 6 | 38.8 | 17.7 | 11.3
16 | COc1ccc(F)c(S(=O)(=O)Nc2ccc(-c3cc(OC(C)C)c4c(N)n[nH]c4c3)cc2)c1 | 64 | 192 | 42.3 | 58.8
17 | COc1ccc(F)c(S(=O)(=O)Nc2ccc(-c3cc(OC)c4c(N)n[nH]c4c3)nc2)c1 | 5 | 6.5 | 13 | 11.1

Row | SMILES | IC50 (Sgk2; [1]) [nM] | IC50 (Sgk2; [2]) [nM] | IC50 (Sgk1; [3]) [nM] | IC50 (Sgk1; [4]) [nM]
18 | COc1ccc(F)c(S(=O)(=O)Nc2ccc(-c3cc(OC)c4c(N)n[nH]c4c3)cn2)c1 | 7.2 | 29.7 | 29.7 | 133
19 | COc1ccc(F)c(S(=O)(=O)Nc2ccc(-c3cc4c5c(n[nH]c5c3)NC(=O)C(C)(C)O4)cc2)c1 | 35 | 323 | 77.6 | 344
20 | COc1ccc(F)c(S(=O)(=O)Nc2ccc(-c3cc4c5c(n[nH]c5c3)NC(=O)CN4)cc2)c1 | 3.4 | 18.6 | 4.8 | 12.6
21 | CCOc1cc(-c2ccc(NS(=O)(=O)c3cc(OC)ccc3F)cc2)nc2[nH]nc(N)c12 | 7.8 | 10.1 | 16.2 | 8.2
22 | COc1ccc(F)c(S(=O)(=O)Nc2ccc(-c3cc(OCCN(C)C)c4c(N)n[nH]c4n3)cc2)c1 | 4.2 | 40 | 45 | 187
23 | COc1ccc(F)c(S(=O)(=O)Nc2ccc(-c3cc(OC4CCOC4)c4c(N)n[nH]c4n3)cc2)c1 (stereo not shown) | 7.6 | 7.6 | 24.7 | 8.9
24 | COc1ccc(F)c(S(=O)(=O)Nc2ccc(-c3cc(C)c4c(N)n[nH]c4c3)nc2)c1 | 5 | 7.9 | 10.1 | 9.2
25 | CCOc1cc(-c2ccc(NS(=O)(=O)c3cc(OC)ccc3F)cn2)cc2[nH]nc(N)c12 | 75 | 19.8 | 14.1 | 110
26 | COCCOc1cc(-c2ccc(NS(=O)(=O)c3cc(OC)ccc3F)cn2)cc2[nH]nc(N)c12 | 4.5 | 33.2 | 40 | 15.3
27 | COc1ccc(F)c(S(=O)(=O)Nc2ccc(-c3cc(O[C@H]4CCOC4)c4c(N)n[nH]c4c3)nc2)c1 | 14.6 | 17.8 | 109 | 181
28 | Cc1n[nH]c2nc(-c3ccc(NS(=O)(=O)c4cc(Cl)ccc4F)cc3)ccc12 | 5.9 | – | 12.1 | –
29 | COc1ccc(Cl)c(NS(=O)(=O)c2ccc(-c3ccc4c(N)n[nH]c4n3)cc2)c1 | 109 | – | > 2000 | –
30 | COc1ccc(F)c(S(=O)(=O)Nc2ccc(-c3ccc4cn[nH]c4c3)nc2)c1 | 31.4 | 267 | 92.5 | 144
31 | COc1ccc(F)c(S(=O)(=O)Nc2ccc(-c3cnc4c(N)n[nH]c4c3)nc2)c1 | 27.8 | 134 | 141 | 208
32 | COc1ccc(F)c(S(=O)(=O)Nc2cnc(-c3ccc4c(N)n[nH]c4c3)nc2)c1 | 3.7 | 7.5 | 14.1 | 62.2
33 | COc1ccc(F)c(S(=O)(=O)Nc2cnc(-c3cc(OC)c4c(N)n[nH]c4c3)nc2)c1 | 5.4 | 4 | 17.9 | 27.3
34 | Nc1n[nH]c2cc(-c3ccc(NS(=O)(=O)c4cccc(Cl)c4Cl)cn3)ccc12 | 17.1 | 13.4 | 150 | 542
